{"source": "patent US20240245677A1", "about": "“SELECTED COMPOUNDS FOR TARGETED DEGRADATION OF BRD9” (C4 THERAPEUTICS, INC., priority 2021, published 2024)", "target": "hERG potassium channels (Homo sapiens, UniProt Q12809)", "sequence (Q12809 whole entry)": "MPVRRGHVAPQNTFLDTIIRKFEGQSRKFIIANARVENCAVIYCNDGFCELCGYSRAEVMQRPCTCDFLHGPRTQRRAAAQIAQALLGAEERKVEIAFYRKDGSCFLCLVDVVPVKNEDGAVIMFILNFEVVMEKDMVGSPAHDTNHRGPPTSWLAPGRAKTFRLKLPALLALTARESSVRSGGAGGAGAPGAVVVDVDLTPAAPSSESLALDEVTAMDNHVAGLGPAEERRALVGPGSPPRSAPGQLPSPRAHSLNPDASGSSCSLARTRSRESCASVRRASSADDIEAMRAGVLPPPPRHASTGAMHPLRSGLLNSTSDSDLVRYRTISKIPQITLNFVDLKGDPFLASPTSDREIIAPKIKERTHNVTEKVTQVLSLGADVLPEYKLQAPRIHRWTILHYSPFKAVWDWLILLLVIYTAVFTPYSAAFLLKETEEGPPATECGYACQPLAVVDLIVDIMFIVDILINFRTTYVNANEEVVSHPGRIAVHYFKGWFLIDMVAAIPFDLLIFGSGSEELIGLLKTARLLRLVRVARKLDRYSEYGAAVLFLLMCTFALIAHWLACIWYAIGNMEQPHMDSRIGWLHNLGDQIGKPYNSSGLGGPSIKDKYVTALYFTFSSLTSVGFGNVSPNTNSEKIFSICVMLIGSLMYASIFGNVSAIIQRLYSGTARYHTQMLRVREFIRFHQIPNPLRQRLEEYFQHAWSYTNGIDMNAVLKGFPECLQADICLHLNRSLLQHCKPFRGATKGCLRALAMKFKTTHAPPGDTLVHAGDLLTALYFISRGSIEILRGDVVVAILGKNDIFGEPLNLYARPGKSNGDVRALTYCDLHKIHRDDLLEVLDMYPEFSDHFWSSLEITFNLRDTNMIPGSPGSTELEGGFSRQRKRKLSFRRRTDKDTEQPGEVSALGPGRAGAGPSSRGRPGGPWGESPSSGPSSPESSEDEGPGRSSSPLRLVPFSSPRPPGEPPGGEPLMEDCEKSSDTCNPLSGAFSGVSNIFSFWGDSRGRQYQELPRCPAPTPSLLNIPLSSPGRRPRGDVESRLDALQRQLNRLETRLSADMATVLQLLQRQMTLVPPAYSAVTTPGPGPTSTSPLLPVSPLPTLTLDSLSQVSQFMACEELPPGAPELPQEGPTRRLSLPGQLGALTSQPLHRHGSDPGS", "experiment": "cell-based", "experimental": "The effects of Compound 1 on the hERG potassium channels were evaluated using the automated patch clamp method (SyncroPatch® 384PE, Nanion Technologies GmbH, Munich, Germany).\nCHO cells stably expressing hERG potassium channels (Sophion Bioscience, Inc. Bedford, MA, USA) were used for this test. The cells were cultured in a humidified and air-controlled (5% CO2) incubator at 37° C. The CHO hERG cell culture medium was 500 mL Ham's F-12 medium (Catalog No. 31765035, Invitrogen, Waltham, MA, USA), 50 mL HyClone™ Fetal Bovine Serum (Catalog No. SV30087.03, Cytiva, Marlborough, MA, USA), 1 mL Geneticin™ (G418 Sulfate, 50 mg/mL)) (Catalog No. 10131027, Invitrogen, Waltham, MA, USA), and 1 mL Hygromycin B (50 mg/mL) (Catalog No. 10687010, Invitrogen, Waltham, MA, USA).\nThe CHO cells were at least two days after plating and more than 75% confluent were used. Before testing, cells were harvested using TrypLE™ and resuspended in the physiological solution at the room temperature.\nThe solutions in Table 9 were used for the electrophysiological recordings. The physiological solution and external solution were prepared at least one month prior to the experiment. The intracellular solution was prepared in batches, aliquoted, and stored at 4° C. until use.\nThe stock solutions were further diluted into external solution to achieve final concentrations for testing. A visual check for precipitation was conducted before testing. Final DMSO concentration in external solution was not more than 0.30% for the test compounds.\nThe voltage command protocol started from a holding potential of −80 mV. Then, the voltage was first stepped to −50 mV for 80 ms for leak subtraction, and then stepped to +20 mV for 4,800 ms to open hERG channels. After that, the voltage was stepped back down to −50 mV for 5,000 ms, causing a “rebound” or tail current, which was measured and collected for data analysis. Finally, the voltage was stepped back to the holding potential of −80 mV for 1,000 ms. This voltage command protocol was repeated every 20,000 msec, and performed continuously during the test of vehicle control and test compounds.\nThis SyncroPatch hERG assay was conducted at room temperature. The Setup, Prime Chip, Catch and Seal Cells, Amplifier Settings, Voltage and Application Protocols were established with […] (Nanion Technologies GmbH, Munich, Germany). One addition of 40 μL of vehicle was applied, followed by a baseline period of 300 s. Then 40 μL doses of test compounds were added. The exposure of test compound at each concentration was no less than 300 s. The recording for the whole process passed quality control or the well was abandoned and the compound was retested, all automatically set by PatchControl (Nanion Technologies, Munich, Germany). Five concentrations (0.30 μM, 1.00 μM, 3.00 μM, 10.00 μM and 30.00 μM) were tested for each compound. A minimum of 2 replicates per concentration were obtained.\nData analysis was carried out using DataControl® (Nanion Technologies GmbH, Munich, Germany), EXCEL 2013 (Microsoft Corporation, Redmond, WA, USA) and GraphPad Prism 5.0 (GraphPad Software, LLC, San Diego, CA, USA).\nWithin each recording well, percent of control values were calculated for each test compound concentration current response based on peak current in presence of reference control (current response/peak current)×100%. The Dose-Response curves were fit to the standard Hill equation as shown below: […]\nwhere X is the logarithm of concentration, Ipost cpd/Ipre cpd is the normalized peak current amplitude, Top is 1, and Bottom is equal to 0. Curve-fitting and IC50 calculations were performed by GraphPad Prism 5.0."}
{"smiles": "COc1cc(-c2cn(C)c(=O)c(C)c2C)cc(OC)c1CN1CC[C@H](N2CCN(c3ccc(N[C@H]4CCC(=O)NC4=O)cc3F)CC2)C(F)(F)C1", "note": "[Compound 1, (S)-3-((4-(4-((S)-1-(2,6-dimethoxy-4-(1,4,5-trimethyl-6-oxo-1,6-dihydropyridin-3-yl)benzyl)-3,3-difluoropiperidin-4-yl)piperazin-1-yl)-3-fluorophenyl)amino)-piperidine-2,6-dione]", "values": [{"measurement": "IC50", "value": 2910, "unit": "nM"}, {"measurement": "HillSlope", "setting": "human", "value": 1.26}, {"measurement": "POI (%)", "setting": "human, 0.3 µM", "value": 12.42, "unit": "%"}, {"measurement": "POI (%)", "setting": "human, 1 µM", "value": 14.61, "unit": "%"}, {"measurement": "POI (%)", "setting": "human, 3 µM", "value": 22.59, "unit": "%"}, {"measurement": "POI (%)", "setting": "human, 10 µM", "value": 19.49, "unit": "%"}, {"measurement": "POI (%)", "setting": "human, 30 µM", "value": 21.92, "unit": "%"}]}
